{"source": "patent US8691290B2", "about": "(priority 2006, dated 2014)", "origin": "cited, not measured here", "test_system": "polymorphonuclear leukocytes (PMN) cells", "conditions": "S. aureus with various concentrations of PVP-I, 6 hours"}
{"substance": "polyvinylpyrolodone-iodine [PVP-I]", "values": [{"measurement": "TNF-α release from PMN cells", "result": "released increasing amounts of TNF-α as PVP-I is diluted"}]}
